Laboratory results from patent publication US20220241249A1, “PHARMACEUTICAL COMPOSITION AND KIT CONTAINING NOVEL PENAM DERIVATIVE OR SALT THEREOF AND ONE OR MORE COMPOUNDS SELECTED FROM beta-LACTAMASE INHIBITORY COMPOUND AND ANTIBACTERIAL COMPOUND OR SALTS THEREOF” (priority 2019, published 2022).
≈ marks a conversion by molar mass, not a printed value.

Key:
Test in all cases: Antibacterial activity evaluation test, MIC by broth microdilution (CLSI)
Format in all cases: cell-based
[1] = system: IMP-1-containing Pseudomonas aeruginosa strain (S-2838); settings: for MIC: Pseudomonas aeruginosa
Method: (§1) The minimum inhibitory concentration (MIC) was measured according to the Clinical and Laboratory Standards Institute (CLSI) standard method by using the following broth microdilution method.
(§2) As bacteria, a Pseudomonas aeruginosa strain ATCC27853, an AmpC-derepressed Pseudomonas aeruginosa mutant strain (S-3028), an IMP-1-containing Pseudomonas aeruginosa strain (S-2838), a VIM-2-containing Pseudomonas aeruginosa strain (S-3779), a GES-19 and GES-20-containing Pseudomonas aeruginosa strain (S-3759), a CTX-M-15-containing Escherichia coli strain (TK-1747), a KPC-2-containing Klebsiella pneumoniae strain (Y-995), an OXA-48-containing Klebsiella pneumoniae strain (Y-1062), and an NDM-1-containing Klebsiella pneumoniae strain (Y-1007) were used. The test bacterial cells that had been cultured overnight on a Mueller Hinton agar medium were scraped off, suspended at a density equivalent to 0.5 McFarland standard, and diluted 10-fold, thereby obtaining an inoculum. A cation-adjusted Mueller Hinton medium containing a test compound was inoculated with 0.005 mL of the inoculum, and the cells were cultured at 35° C. for 16 to 20 hours. The minimum drug concentration at which the growth of bacteria was not visually observed was defined as MIC (μg/mL).
(§3) An antibacterial activity evaluation test was performed in the same manner as in Test Example 1.

[2] = system: VIM-2-containing Pseudomonas aeruginosa strain (S-3779); settings: for MIC: Pseudomonas aeruginosa
Method: as §1, §2, §3

[3] = system: KPC-2-containing Klebsiella pneumoniae strain (Y-995); settings: for MIC: Klebsiella pneumoniae
Method: as §1, §2, §3

[4] = system: GES-19 and GES-20-containing Pseudomonas aeruginosa strain (S-3759); settings: for MIC: Pseudomonas aeruginosa
Method: as §1, §2, §3

[5] = system: AmpC-derepressed Pseudomonas aeruginosa mutant strain (S-3028); settings: for MIC: Pseudomonas aeruginosa
Method: as §1, §2, §3

[6] = system: CTX-M-15-containing Escherichia coli strain (TK-1747); settings: for MIC: Escherichia coli
Method: as §1, §2, §3

[7] = system: Pseudomonas aeruginosa strain ATCC27853; settings: Pseudomonas aeruginosa, ATCC27853
Method: as §1, §2, §3

[8] = system: NDM-1-containing Klebsiella pneumoniae strain (Y-1007); settings: for MIC: Klebsiella pneumoniae
Method: as §1, §2, §3

[9] = system: OXA-48-containing Klebsiella pneumoniae strain (Y-1062); settings: for MIC: Klebsiella pneumoniae
Method: as §1, §2, §3

Compound | MIC [1] | MIC [2] | MIC [3] | MIC [4] | MIC [5] | MIC [6] | MIC [7] | MIC [8] | MIC [9] | Antibacterial activity (MIC) Pseudomonas aeruginosa S-2838 [1] | Antibacterial activity (MIC) Pseudomonas aeruginosa S-3779 [2] | Antibacterial activity (MIC) Klebsiella pneumoniae Y-995 [3] | Antibacterial activity (MIC) Pseudomonas aeruginosa S-3759 [4] | Antibacterial activity (MIC) Pseudomonas aeruginosa S-3028 [5] | Antibacterial activity (MIC) Escherichia coli TK-1747 [6] | Antibacterial activity (MIC) Pseudomonas aeruginosa ATCC 27853 [7] | Antibacterial activity (MIC) Klebsiella pneumoniae Y-1007 [8] | Antibacterial activity (MIC) Klebsiella pneumoniae Y-1062 [9]
CC(C)(O/N=C(\C(=O)N[C@@H]1C(=O)N2C[C@@](C(=O)O)(N3CCN(NC(=O)CNC(=O)C(=O)c4ccc(O)c(O)c4Cl)C3=O)S[C@H]12)c1csc(N)n1)C(=O)O [Example 29] | 1 µg/mL (≈ 1.25 µM) | 0.5 µg/mL (≈ 0.626 µM) | 0.5 µg/mL (≈ 0.626 µM) | 0.5 µg/mL (≈ 0.626 µM) | < 0.06 µg/mL | 2 µg/mL (≈ 2.51 µM) | 0.25 µg/mL (≈ 0.313 µM) | < 0.06 µg/mL | 1 µg/mL (≈ 1.25 µM) |  |  |  |  |  |  |  |  | 
CC(C)(O/N=C(\C(=O)NC1C(=O)N2C[C@@](C(=O)O)(N3CCN(NC(=O)NNC(=O)C(=O)c4ccc(O)c(O)c4Cl)C3=O)S[C@H]12)c1csc(N)n1)C(=O)O (stereo partly drawn) [Example 153] |  |  |  |  |  |  |  |  |  | 0.5 µg/mL | 1 µg/mL | 0.25 µg/mL | 2 µg/mL | 0.12 µg/mL | 0.5 µg/mL | 0.5 µg/mL | < 0.06 µg/mL | 4 µg/mL
Nc1nc(/C(=N/OC2(C(=O)O)CC2)C(=O)N[C@@H]2C(=O)N3C[C@@](C(=O)O)(N4CCN(NC(=O)C(=O)c5ccc(O)c(O)c5Cl)C4=O)S[C@H]23)c(Cl)s1 [Example 76, (3R,5R,6R)-6-((Z)-2-(2-amino-5-chlorothiazol-4-yl)-2-((1-carboxycyclopropoxy)imino)acetamido)-3-(3-(2-(2-chloro-3,4-dihydroxyphenyl)-2-oxoacetamido)-2-oxoimidazolidin-1-yl)-7-oxo-4-thia-1-azabicyclo[3.2.0]heptane-3-carboxylic acid] | 0.5 µg/mL (≈ 0.646 µM) | 0.25 µg/mL (≈ 0.323 µM) | 0.25 µg/mL (≈ 0.323 µM) | 0.25 µg/mL (≈ 0.323 µM) | 0.12 µg/mL (≈ 0.155 µM) | 0.06 µg/mL (≈ 0.0776 µM) | 0.5 µg/mL (≈ 0.646 µM) | 0.25 µg/mL (≈ 0.323 µM) | 0.25 µg/mL (≈ 0.323 µM) |  |  |  |  |  |  |  |  | 
CC(C)(O/N=C(\C(=O)NC1C(=O)N2C[C@@](C(=O)O)(N3CCN(NC(=O)C(=O)c4cc(O)c(O)cc4F)C3=O)S[C@H]12)c1csc(N)n1)C(=O)O (stereo partly drawn) [Example 147, (3R,5R,6R)-6-((Z)-2-(2-aminothiazol-4-yl)-2-(((2-carboxypropan-2-yl)oxy)imino)aceta-mido)-3-(3-(2-(2-fluoro-4,5-dihydroxy-phenyl)-2-oxoaceta-mido)-2-oxoimidazol-idin-1-yl)-7-oxo-4-thia-1-azabicyclo[3.2.0]-heptane-3-carboxylic acid] |  |  |  |  |  |  |  |  |  | 4 µg/mL | 1 µg/mL | 0.25 µg/mL | 1 µg/mL | 0.5 µg/mL | 1 µg/mL | 1 µg/mL | < 0.06 µg/mL | 4 µg/mL
CC(C)(O/N=C(\C(=O)N[C@@H]1C(=O)N2C[C@@](C(=O)O)(n3cc(CNC(=O)c4ccc(O)c(O)c4Cl)nn3)S[C@H]12)c1csc(N)n1)C(=O)O [Example 74, (3R,5R,6R)-6-((Z)-2-(2-aminothiazol-4-yl)-2-(((2-carboxypropan-2-yl)oxy)imino)acetamido)-3-(4-((2-chloro-3,4-dihydroxybenzamido)methyl)-1H-1,2,3-triazol-1-yl)-7-oxo-4-thia-1-azabicyclo[3.2.0]heptane-3-carboxylic acid] | 0.25 µg/mL (≈ 0.352 µM) | 1 µg/mL (≈ 1.41 µM) | 2 µg/mL (≈ 2.82 µM) | 1 µg/mL (≈ 1.41 µM) | 0.5 µg/mL (≈ 0.704 µM) | 1 µg/mL (≈ 1.41 µM) | 0.5 µg/mL (≈ 0.704 µM) | 0.25 µg/mL (≈ 0.352 µM) | 4 µg/mL (≈ 5.63 µM) |  |  |  |  |  |  |  |  | 
